Results reported in patent US11306078B2, “Piperidine CXCR7 receptor modulators” (IDORSIA PHARMACEUTICALS LTD., priority 2016, dated 2022).

Target: human chemokine receptor CXCR7 (Homo sapiens (Human), UniProt P25106)
Assay: Tango CXCR7-bla U2OS beta-arrestin recruitment assay (beta-lactamase reporter, FRET), antagonism of CXCL12/SDF1-α;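 further: compounds preincubated 15 min before CXCL12 addition, then 22 h at 37 °C, FRET emission ratio read with CCF4-AM substrate after 2 h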
Format: cell-based
Conditions: antagonistic effect on CXCR7; Tango CXCR7-bla U2OS cells, CXCL12/SDF1-α at its EC80

Chain of human chemokine receptor CXCR7 (P25106 whole entry): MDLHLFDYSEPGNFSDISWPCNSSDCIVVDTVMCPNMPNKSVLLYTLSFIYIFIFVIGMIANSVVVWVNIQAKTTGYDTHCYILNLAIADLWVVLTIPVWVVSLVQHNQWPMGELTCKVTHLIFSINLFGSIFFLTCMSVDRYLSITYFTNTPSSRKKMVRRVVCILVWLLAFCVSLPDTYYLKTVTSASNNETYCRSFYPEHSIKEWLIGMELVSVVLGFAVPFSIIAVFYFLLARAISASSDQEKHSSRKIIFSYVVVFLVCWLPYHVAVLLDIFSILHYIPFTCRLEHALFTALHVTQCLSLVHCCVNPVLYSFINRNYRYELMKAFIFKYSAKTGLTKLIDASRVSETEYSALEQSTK

Compound	IC50 [µM]
C[C@@H](NC(=O)[C@@H]1CN(C2CCCC2)CC[C@H]1NC(=O)c1cc(-c2c(F)cc(F)cc2F)on1)c1ccccn1 (single isomer, unassigned) [Example 1.122b, (3R*,4R*)-1-Cyclopentyl-4-{[5-(2,4,6-trifluoro-phenyl)-isoxazole-3-carbonyl]-amino}-piperidine-3-carboxylic acid ((R)-1-pyridin-2-yl-ethyl)-amide]	0.017
C[C@@H](NC(=O)[C@H]1CN(CC2CC2)CC[C@@H]1NC(=O)c1cc(-c2c(F)cc(F)cc2F)on1)c1ccccn1 (single isomer, unassigned) [Example 1.123a, (3S,4S)-1-Cyclopropylmethyl-4-{[5-(2,4,6-trifluoro-phenyl)-isoxazole-3-carbonyl]-amino}-piperidine-3-carboxylic acid ((R)-1-pyridin-2-yl-ethyl)-amide or (3R,4R)-1-Cyclopropylmethyl-4-{[5-(2,4,6-trifluoro-phenyl)-isoxazole-3-carbonyl]-amino}-piperidine-3-carboxylic acid ((R)-1-pyridin-2-yl-ethyl)-amide]	0.004
C[C@@H](NC(=O)[C@H]1CN(C2CCCCC2)CC[C@@H]1NC(=O)c1cc(-c2ccc(F)cc2F)no1)c1ccccn1 (single isomer, unassigned) [Example 1.125a, (3S,4S)-1-Cyclohexyl-4-{[3-(2,4-difluoro-phenyl)-isoxazole-5-carbonyl]-amino}-piperidine-3-carboxylic acid ((R)-1-pyridin-2-yl-ethyl)-amide or (3R,4R)-1-Cyclohexyl-4-{[3-(2,4-difluoro-phenyl)-isoxazole-5-carbonyl]-amino}-piperidine-3-carboxylic acid ((R)-1-pyridin-2-yl-ethyl)-amide]	0.03
C[C@@H](NC(=O)[C@@H]1CN(C2CCCCC2)CC[C@H]1NC(=O)c1cc(-c2c(F)cc(F)cc2F)on1)c1cnccn1 (single isomer, unassigned) [Example 1.129a, (3R*,4R*)-1-Cyclohexyl-4-{[5-(2,4,6-trifluoro-phenyl)-isoxazole-3-carbonyl]-amino}-piperidine-3-carboxylic acid ((R)-1-pyrazin-2-yl-ethyl)-amide]	0.647
C[C@@H](NC(=O)[C@@H]1CN(CC2CC2)CC[C@H]1NC(=O)c1cc(-c2c(F)cc(F)cc2F)on1)C1CCC1 (single isomer, unassigned) [Example 1.139b, (3R*,4R*)-1-Cyclopropylmethyl-4-{[5-(2,4,6-trifluoro-phenyl)-isoxazole-3-carbonyl]-amino}-piperidine-3-carboxylic acid ((R)-1-cyclobutyl-ethyl)-amide]	0.029
C[C@@H](NC(=O)[C@H]1CN(CC2CC2)CC[C@@H]1NC(=O)c1cc(-c2ccc(F)cc2F)no1)c1ccccn1 (single isomer, unassigned) [Example 1.154a, (3S,4S)-1-Cyclopropylmethyl-4-{[3-(2,4-difluoro-phenyl)-isoxazole-5-carbonyl]-amino}-piperidine-3-carboxylic acid ((R)-1-pyridin-2-yl-ethyl)-amide or (3R,4R)-1-Cyclopropylmethyl-4-{[3-(2,4-difluoro-phenyl)-isoxazole-5-carbonyl]-amino}-piperidine-3-carboxylic acid ((R)-1-pyridin-2-yl-ethyl)-amide]	0.046
C[C@@H](NC(=O)[C@H]1CN(C2CCCCC2)CC[C@@H]1NC(=O)c1noc(-c2ccc(F)cc2F)n1)c1ccccn1 (single isomer, unassigned) [Example 1.156a, (3S,4S)-1-Cyclohexyl-4-{[5-(2,4-difluoro-phenyl)-[1,2,4]oxadiazole-3-carbonyl]-amino}-piperidine-3-carboxylic acid ((R)-1-pyridin-2-yl-ethyl)-amide or (3R,4R)-1-Cyclohexyl-4-{[5-(2,4-difluoro-phenyl)-[1,2,4]oxadiazole-3-carbonyl]-amino}-piperidine-3-carboxylic acid ((R)-1-pyridin-2-yl-ethyl)-amide]	0.019
O=C(N[C@@H]1CCN(C2CCCCC2)C[C@H]1C(=O)NC1(c2ccccn2)CC1)c1cn(-c2ccc(F)cc2F)nn1 (single isomer, unassigned) [Example 1.165a, (3R*,4R*)-1-Cyclohexyl-4-{[1-(2,4-difluoro-phenyl)-1H-[1,2,3]triazole-4-carbonyl]-amino}-piperidine-3-carboxylic acid (1-pyridin-2-yl-cyclopropyl)-amide]	0.043
O=C(N[C@@H]1CCN(C2CCCCC2)C[C@H]1C(=O)NC1(c2ccccn2)CC1)c1cn(-c2ccc(F)cc2F)nn1 (single isomer, unassigned) [Example 1.165b, (3R*,4R*)-1-Cyclohexyl-4-{[1-(2,4-difluoro-phenyl)-1H-[1,2,3]triazole-4-carbonyl]-amino}-piperidine-3-carboxylic acid (1-pyridin-2-yl-cyclopropyl)-amide]	0.537
O=C(N[C@H]1CCN(C2CCCC2)C[C@@H]1C(=O)NC1(c2ccccn2)CC1)c1cc(-c2c(F)cc(F)cc2F)on1 (single isomer, unassigned) [Example 1.170a, (3S,4S)-1-Cyclopentyl-4-{[5-(2,4,6-trifluoro-phenyl)-isoxazole-3-carbonyl]-amino}-piperidine-3-carboxylic acid (1-pyridin-2-yl-cyclopropyl)-amide or (3R,4R)-1-Cyclopentyl-4-{[5-(2,4,6-trifluoro-phenyl)-isoxazole-3-carbonyl]-amino}-piperidine-3-carboxylic acid (1-pyridin-2-yl-cyclopropyl)-amide]	0.033
O=C(N[C@H]1CCN(C2CCCC2)C[C@@H]1C(=O)NC1(c2ncccn2)CC1)c1cc(-c2c(F)cc(F)cc2F)on1 (single isomer, unassigned) [Example 1.176a, (3S,4S)-1-Cyclopentyl-4-{[5-(2,4,6-trifluoro-phenyl)-isoxazole-3-carbonyl]-amino}-piperidine-3-carboxylic acid (1-pyrimidin-2-yl-cyclopropyl)-amide or (3R,4R)-1-Cyclopentyl-4-{[5-(2,4,6-trifluoro-phenyl)-isoxazole-3-carbonyl]-amino}-piperidine-3-carboxylic acid (1-pyrimidin-2-yl-cyclopropyl)-amide]	0.005

Further molecules by falling IC50, results first:

IC50 [µM]	Compound
0.79	C[C@@H](NC(=O)[C@@H]1CN(CC2CC2)CC[C@H]1NC(=O)c1cc(-c2c(F)cc(F)cc2F)on1)C1CCC1 (single isomer, unassigned) [Example 1.139a, (3R*,4R*)-1-Cyclopropylmethyl-4-{[5-(2,4,6-trifluoro-phenyl)-isoxazole-3-carbonyl]-amino}-piperidine-3-carboxylic acid ((R)-1-cyclobutyl-ethyl)-amide]
0.519	Cc1cccc([C@@H](C)NC(=O)[C@@H]2CN(C3CCCCC3)CC[C@H]2NC(=O)c2cc(-c3ccc(F)cc3F)on2)n1 (single isomer, unassigned) [Example 1.188b, (3R*,4R*)-1-Cyclohexyl-4-{[5-(2,4-difluoro-phenyl)-isoxazole-3-carbonyl]-amino}-piperidine-3-carboxylic acid [(R)-1-(6-methyl-pyridin-2-yl)-ethyl]-amide]
0.446	O=C(N[C@@H]1CCN(CC2CC2)C[C@H]1C(=O)NC1(c2ccccn2)CC1)c1cc(-c2c(F)cc(F)cc2F)on1 (single isomer, unassigned) [Example 1.171b, (3R*,4R*)-1-Cyclopropylmethyl-4-{[5-(2,4,6-trifluoro-phenyl)-isoxazole-3-carbonyl]-amino}-piperidine-3-carboxylic acid (1-pyridin-2-yl-cyclopropyl)-amide]
0.437	C[C@@H](NC(=O)[C@@H]1CN(C2CCCC2)CC[C@H]1NC(=O)c1cc(-c2c(F)cc(F)cc2F)on1)C1CCC1 (single isomer, unassigned) [Example 1.138a, (3R*,4R*)-1-Cyclopentyl-4-{[5-(2,4,6-trifluoro-phenyl)-isoxazole-3-carbonyl]-amino}-piperidine-3-carboxylic acid ((R)-1-cyclobutyl-ethyl)-amide]
0.362	Cc1cccc([C@H](C)NC(=O)[C@@H]2CN(C3CCCCC3)CC[C@H]2NC(=O)c2cc(-c3ccc(F)cc3F)on2)n1 (single isomer, unassigned) [Example 1.188.d, (3R*,4R*)-1-Cyclohexyl-4-{[5-(2,4-difluoro-phenyl)-isoxazole-3-carbonyl]-amino}-piperidine-3-carboxylic acid [(S)-1-(6-methyl-pyridin-2-yl)-ethyl]-amide]
0.083	C[C@@H](NC(=O)[C@@H]1CN(C2CCCC2)CC[C@H]1NC(=O)c1cc(-c2c(F)cc(F)cc2F)on1)C1CCC1 (single isomer, unassigned) [Example 1.138b, (3R*,4R*)-1-Cyclopentyl-4-{[5-(2,4,6-trifluoro-phenyl)-isoxazole-3-carbonyl]-amino}-piperidine-3-carboxylic acid ((R)-1-cyclobutyl-ethyl)-amide]
0.035	C[C@@H](NC(=O)[C@@H]1CN(C2CCCCC2)CC[C@H]1NC(=O)c1cc(-c2c(F)cc(F)cc2F)on1)c1cnccn1 (single isomer, unassigned) [Example 1.129b, (3R*,4R*)-1-Cyclohexyl-4-{[5-(2,4,6-trifluoro-phenyl)-isoxazole-3-carbonyl]-amino}-piperidine-3-carboxylic acid ((R)-1-pyrazin-2-yl-ethyl)-amide]
0.007	O=C(N[C@@H]1CCN(CC2CC2)C[C@H]1C(=O)NC1(c2ccccn2)CC1)c1cc(-c2c(F)cc(F)cc2F)on1 (single isomer, unassigned) [Example 1.171a, (3R*,4R*)-1-Cyclopropylmethyl-4-{[5-(2,4,6-trifluoro-phenyl)-isoxazole-3-carbonyl]-amino}-piperidine-3-carboxylic acid (1-pyridin-2-yl-cyclopropyl)-amide]
0.003	Cc1cccc([C@@H](C)NC(=O)[C@@H]2CN(C3CCCCC3)CC[C@H]2NC(=O)c2cc(-c3ccc(F)cc3F)on2)n1 (single isomer, unassigned) [Example 1.188a, (3R*,4R*)-1-Cyclohexyl-4-{[5-(2,4-difluoro-phenyl)-isoxazole-3-carbonyl]-amino}-piperidine-3-carboxylic acid [(R)-1-(6-methyl-pyridin-2-yl)-ethyl]-amide]
